# Data taken from US9783537B2, “3-(4-ethylnylphenyl) pyridopyrimidinone compounds and process for preparation thereof useful as potential anticancer agents” (Council of Scientific & Industrial Research, priority 2013, dated 2017).
# Read-outs that look alike come from different tables or passages of the source.
# Experiments:
# [1] = test system: eight renal cancer cell line (786-0, A498, ACHN, CAKI-1, SN12C, TK-10, UO-31 and RXF 393); test: in vitro anticancer activity, renal panel; format: cell-based; conditions: Homo sapiens; eight renal cancer cell lines, exposure at least 48 h; read-out: in vitro anticancer activity, range over panel
# [2] = in vitro anticancer activity, non-small cell lung panel; format: cell-based; conditions: Homo sapiens; nine non-small cell lung cancer cell lines, exposure at least 48 h; read-out: GI50, range over panel
# [3] = test system: SW-620; test: SRB 48 h growth assay, Colon SW-620; format: cell-based, human; conditions: SW-620, Colon
# [4] = test system: NCI-H226; test: SRB 48 h growth assay, Non-small Cell Lung NCI-H226; format: cell-based, human
# [5] = test system: six leukemia cancer cell lines (CCRF-CEM, HL-60, K-562, MOLT-4, SR and RPMI-8226); test: in vitro anticancer activity, leukemia panel; format: cell-based; conditions: Homo sapiens, exposure at least 48 h, read-out: GI50, range over panel
# [6] = test system: HCT-116; test: SRB 48 h growth assay, Colon HCT-116; format: cell-based, human; conditions: HCT-116, Colon
# [7] = test system: LOX IMVI; test: SRB 48 h growth assay, Melanoma LOX IMVI; format: cell-based, human
# [8] = test system: SNB-75; test: SRB 48 h growth assay, CNS SNB-75; format: cell-based, human; conditions: SNB-75, CNS
# [9] = test system: COLO 205; test: SRB 48 h growth assay, Colon COLO 205; format: cell-based, human; conditions: COLO 205, Colon
# [10] = test system: NCI-H322M; test: SRB 48 h growth assay, Non-small Cell Lung NCI-H322M; format: cell-based, human
# [11] = test system: OVCAR-8; test: SRB 48 h growth assay, Ovarian OVCAR-8; format: cell-based, human; conditions: OVCAR-8, Ovarian
# [12] = test system: SK-MEL-5; test: SRB 48 h growth assay, Melanoma SK-MEL-5; format: cell-based, human; conditions: SK-MEL-5, Melanoma
# [13] = test system: KM12; test: SRB 48 h growth assay, Colon KM12; format: cell-based, human
# [14] = test system: SF-539; test: SRB 48 h growth assay, CNS SF-539; format: cell-based, human; conditions: SF-539, CNS
# [15] = test system: SK-MEL-28; test: SRB 48 h growth assay, Melanoma SK-MEL-28; format: cell-based, human; conditions: SK-MEL-28, Melanoma
# [16] = in vitro anticancer activity, melanoma panel; format: cell-based; conditions: Homo sapiens; nine melanoma cell lines, exposure at least 48 h; read-out: GI50, range over panel
# [17] = test system: IGROV1; test: SRB 48 h growth assay, Ovarian IGROV1; format: cell-based, human
# [18] = test system: OVCAR-3; test: SRB 48 h growth assay, Ovarian OVCAR-3; format: cell-based, human; conditions: OVCAR-3, Ovarian
# [19] = test system: SK-OV-3; test: SRB 48 h growth assay, Ovarian SK-OV-3; format: cell-based, human; conditions: SK-OV-3, Ovarian
# [20] = test system: MDA-MB-468; test: SRB 48 h growth assay, Breast MDA-MB-468; format: cell-based, human; conditions: MDA-MB-468, Breast
# [21] = test system: HOP-92; test: SRB 48 h growth assay, Non-small Cell Lung HOP-92; format: cell-based, human; conditions: HOP-92, Non-small Cell Lung
# [22] = test system: UO-31; test: SRB 48 h growth assay, Renal UO-31; format: cell-based, human; conditions: UO-31, Renal
# [23] = test system: UACC-257; test: SRB 48 h growth assay, Melanoma UACC-257; format: cell-based, human; conditions: UACC-257, Melanoma
# [24] = test system: HL-60(TB); test: SRB 48 h growth assay, Leukemia HL-60(TB); format: cell-based, human
# [25] = test system: SNB-19; test: SRB 48 h growth assay, CNS SNB-19; format: cell-based, human; conditions: SNB-19, CNS
# [26] = test system: NCI/ADR-RES; test: SRB 48 h growth assay, Ovarian NCI/ADR-RES; format: cell-based, human
# [27] = Homo sapiens, read-out: Growth Inhibition GI50
# [28] = Homo sapiens, read-out: Log10 GI50 (converted)
# [29] = Homo sapiens, read-out: Log10 LC50 (converted)
structure (smiles),measurement,setting,value
"C#Cc1ccc(-n2c(/C=C/c3ccc(O)cc3)nc3ncccc3c2=O)cc1 [4b, (E)-3-(4-Ethynylphenyl)-2-(4-hydroxystyryl)pyrido[2,3-d]pyrimidin-4(3H)-one]",GI50,[1],2.63 to 20.5 µM
same,GI50,[2],2.31 to 17.3 µM
same,GI50,[3]; [27],3.55 µM
same,GI50,[3]; [28],3.55 µM
same,CC50,[3]; [29],> 100 µM
same,Log10 TGI50,[3],>−4.00
same,Log10 TGI50,[4],−4.88
same,GI50,[4]; [27],2.58 µM
same,GI50,[4]; [28],2.57 µM
same,LC50,[4]; [29],> 100 µM
same,GI50,[5],3.58 to 5.55 µM
same,Log10 TGI50,[6],>−4.00
same,GI50,[6]; [27],5.07 µM
same,GI50,[6]; [28],5.01 µM
same,CC50,[6]; [29],> 100 µM
same,Log10 TGI50,[7],>−4.00
same,GI50,[7]; [27],5.35 µM
same,GI50,[7]; [28],5.37 µM
same,CC50,[7]; [29],> 100 µM
same,GI50,[8]; [27],0.94 µM
same,GI50,[8]; [28],0.955 µM
same,CC50,[8]; [29],> 100 µM
same,Log10 TGI50,[8],−4.49
same,Log10 TGI50,[9],>−4.00
same,GI50,[9]; [27],> 100 µM
same,GI50,[9]; [28],> 100 µM
same,CC50,[9]; [29],> 100 µM
same,Log10 TGI50,[10],>−4.00
same,GI50,[10]; [27],5.58 µM
same,GI50,[10]; [28],5.62 µM
same,CC50,[10]; [29],> 100 µM
same,GI50,[11]; [27],4.39 µM
same,GI50,[11]; [28],4.37 µM
same,CC50,[11]; [29],> 100 µM
same,Log10 TGI50,[11],−4.33
same,GI50,[12]; [27],2.24 µM
same,GI50,[12]; [28],2.24 µM
same,CC50,[12]; [29],> 100 µM
same,Log10 TGI50,[12],−5.13
same,Log10 TGI50,[13],−4.22
same,GI50,[13]; [27],3.81 µM
same,GI50,[13]; [28],3.8 µM
same,CC50,[13]; [29],> 100 µM
same,GI50,[14]; [27],2.12 µM
same,GI50,[14]; [28],2.14 µM
same,CC50,[14]; [29],> 74.1 µM
same,Log10 TGI50,[14],−5.21
same,GI50,[15]; [27],5.97 µM
same,GI50,[15]; [28],6.03 µM
same,CC50,[15]; [29],> 100 µM
same,Log10 TGI50,[15],>−4.00
same,GI50,[16],1.78 to 34.6 µM
same,Log10 TGI50,[17],−4.45
same,GI50,"[17]; Homo sapiens, IGROV-1, read-out: Growth Inhibition GI50",4.69 µM
same,GI50,"[17]; Homo sapiens, IGROV-1, read-out: Log10 GI50 (converted)",4.68 µM
same,CC50,"[17]; Homo sapiens, IGROV-1, read-out: Log10 LC50 (converted)",> 100 µM
same,GI50,[18]; [27],2.41 µM
same,GI50,[18]; [28],2.4 µM
same,CC50,[18]; [29],> 72.4 µM
same,Log10 TGI50,[18],−5.24
same,GI50,[19]; [27],3.38 µM
same,GI50,[19]; [28],3.39 µM
same,CC50,[19]; [29],> 100 µM
same,Log10 TGI50,[19],−4.54
same,GI50,[20]; [27],2.31 µM
same,GI50,[20]; [28],2.29 µM
same,CC50,[20]; [29],> 100 µM
same,Log10 TGI50,[20],−5.15
same,Log10 TGI50,[21],−4.77
same,GI50,[21]; [27],1.8 µM
same,GI50,[21]; [28],1.82 µM
same,CC50,[21]; [29],> 100 µM
same,GI50,[22]; [27],3.79 µM
same,GI50,[22]; [28],3.8 µM
same,CC50,[22]; [29],> 100 µM
same,Log10 TGI50,[22],−4.47
same,GI50,[23]; [27],6.3 µM
same,GI50,[23]; [28],6.31 µM
same,CC50,[23]; [29],> 100 µM
same,Log10 TGI50,[23],>−4.00
same,Log10 TGI50,[24],−4.52
same,GI50,[24]; [27],3.2 µM
same,GI50,[24]; [28],3.24 µM
same,CC50,[24]; [29],> 100 µM
same,GI50,[25]; [27],6.26 µM
same,GI50,[25]; [28],6.31 µM
same,CC50,[25]; [29],> 100 µM
same,Log10 TGI50,[25],>−4.00
same,Log10 TGI50,[26],>−4.00
same,GI50,[26]; [27],5.28 µM
same,GI50,[26]; [28],5.25 µM
same,CC50,[26]; [29],> 100 µM
